Experimental data as given in ChEMBL document CHEMBL1201862, “PubChem BioAssay data set” (2004).
The source made the active and inactive calls.

How the values were obtained:
[1] = THP-1 cell cytotoxicity, dose response, cytotoxicity control for non-replicating M. tuberculosis project (AID 489025); type: functional
[2] = HepG2 cell cytotoxicity, dose response, cytotoxicity control for non-replicating M. tuberculosis project (AID 489018); type: functional; details: Mycobacterium tuberculosis
[3] = Vero E6 cell cytotoxicity, dose response, cytotoxicity control for non-replicating M. tuberculosis project, secondary assay (AID 492998); type: functional, VeroE6; details: Vero C1008
cells = type: functional
INS1 = test: beta cell apoptosis inhibitors, cytokine rescue, dose response, luminescence, retest (AID 449756); type: functional, cell-based; details: Rattus norvegicus;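 also: cell death triggered by IL-1 beta plus TNF-alpha plus IFN-gamma mixture; protective hits raise ATP signal compared with cytokine alone wells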
[4] = biological target: T1, Scavenger receptor class B member 1 (Mus musculus, UniProt Q61009); test: inhibitors of SR-BI mediated HDL lipid uptake, dose response, ldlA[mSR-BI] cells, fluorescence, cherry pick (AID 493194); type: functional, cell-based;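 also: cellular uptake of fluorescent DiI-labeled HDL measured as cell fluorescence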
T1 sequence (Q61009 whole entry): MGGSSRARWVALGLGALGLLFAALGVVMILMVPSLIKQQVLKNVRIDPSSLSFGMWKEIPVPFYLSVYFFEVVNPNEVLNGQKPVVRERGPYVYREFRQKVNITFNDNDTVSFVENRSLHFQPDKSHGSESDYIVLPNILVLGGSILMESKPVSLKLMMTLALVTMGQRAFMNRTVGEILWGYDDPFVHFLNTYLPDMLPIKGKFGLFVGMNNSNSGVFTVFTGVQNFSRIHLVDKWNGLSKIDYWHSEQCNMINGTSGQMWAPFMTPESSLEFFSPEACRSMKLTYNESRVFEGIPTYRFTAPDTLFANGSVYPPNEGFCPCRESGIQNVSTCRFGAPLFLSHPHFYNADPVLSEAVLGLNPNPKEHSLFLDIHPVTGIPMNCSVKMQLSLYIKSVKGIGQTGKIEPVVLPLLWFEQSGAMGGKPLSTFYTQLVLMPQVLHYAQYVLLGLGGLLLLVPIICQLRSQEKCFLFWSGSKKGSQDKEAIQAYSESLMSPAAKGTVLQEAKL

Kallikrein-7 = Kallikrein-7 (Homo sapiens, UniProt P49862); test: Fluorescence Intensity-based biochemical primary high throughput dose response assay to identify activators of kallikrein-7 (K7) zymogen.
[5] = biological target: Induced myeloid leukemia cell differentiation protein Mcl-1 (Homo sapiens, UniProt Q07820); type: functional
Paired box protein Pax-8 = Paired box protein Pax-8 (Homo sapiens, UniProt Q06710); test: inhibitors of PAX8-driven TPO luciferase reporter, dose response, RMG-I cells, cherry-pick (AID 687027); type: functional, cell-based;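 also: luciferase reporter driven by Pax8 target thyroperoxidase promoter measured by SteadyGlo luminescence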
[6] = A549 cell cytotoxicity, dose response, cytotoxicity control, plate reader, cherry-pick, antagonist series (AID 743412); type: functional, cell-based
[7] = HepG2 cell cytotoxicity, dose response, cytotoxicity control, plate reader, cherry-pick, antagonist series (AID 743416); type: functional, cell-based
[8] = LGR2 antagonists, dose response, cell-based, HEK293, CRE-luciferase reporter, cherry pick, set 2 (AID 743343); type: functional;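 also: transfected cells were stimulated with diluted bursicon conditioned medium after compound addition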
[9] = MC4R antagonists, dose response, counter-screen for LGR2 antagonist project, cell-based, plate reader, cherry pick (AID 743444); type: functional;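 also: transfected HEK 293 cells stimulated with alpha-MSH peptide; potency of inhibitors of the alpha-MSH evoked signal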
[10] = HEK293 cell cytotoxicity, dose response, cytotoxicity control, plate reader, cherry-picked samples (AID 743446); type: functional, cell-based
[11] = test system: Streptococcus sp. 'group A'; test: growth inhibition of control SK(-) GAS strain, dose response, counter-screen for streptokinase expression inhibitor project, luminescence, kanamycin, BacTiterGlo, confirmation (AID 1900); type: functional, organism-based
[12] = growth suppression of PTEN-null colon cells, dose response, cell-based, HCT116 PTEN knockout (AID 1047); type: functional;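 also: HCT116 colon tumor cells with PTEN knocked out; cells exposed to compound for 60 hours before readout; potency for loss of cell viability measured by luminescence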
[13] = growth suppression of beta-catenin-knockout colon cells, dose response, cell-based, HCT116, human colon tumor (AID 1045); type: functional;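 also: HCT116 colon tumor cells with beta catenin knocked out; cells exposed to compound for 60 hours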
Streptococcus = test: Group A Streptococcus viability loss, dose response, counter-screen for streptokinase expression inhibitor project, luminescence, BacTiterGlo (AID 1915); type: functional, organism-based;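 also: potency for reduction of bacterial viability or growth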
[14] = Luminescence Cell-Based Dose Retest to Confirm Inhibitors of Cancer Stem Cells. [Related pubchem assays (depositor defined):AID2717, AID2721]; type: functional, Homo sapiens; details: Homo sapiens
X-box-binding protein 1 = biological target: T2, X-box-binding protein 1 (Homo sapiens, UniProt P17861); type: functional, Cricetulus griseus;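 also: confirmatory dose-response counter-screen serving a CHOP assay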
T2 sequence (P17861 whole entry): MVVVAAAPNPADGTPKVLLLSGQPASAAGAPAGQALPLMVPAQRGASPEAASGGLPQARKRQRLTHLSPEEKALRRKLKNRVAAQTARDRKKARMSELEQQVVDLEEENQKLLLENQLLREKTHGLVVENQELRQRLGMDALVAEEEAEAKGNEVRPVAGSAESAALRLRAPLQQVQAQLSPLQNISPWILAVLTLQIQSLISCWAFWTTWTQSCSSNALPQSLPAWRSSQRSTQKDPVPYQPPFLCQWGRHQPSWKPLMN

[15] = biological target: Voltage-gated N-type calcium channel alpha-1B subunit/Amyloid beta A4 precursor protein-binding family A member 1 (Homo sapiens, UniProt Q00975+Q02410); test: disruptors of Mint-PDZ/N-type channel peptide interaction – biochemical, HTRF, SAR follow-up (AID 2489); type: functional
Bcl-2-like protein 10 = biological target: T3, Bcl-2-like protein 10 (Homo sapiens, UniProt Q9HD36); test: displacers of TR3 peptide from Bcl-B, primary screen, selectivity assay for Bfl-1 inhibitor project, biochemical, fluorescence polarization, FITC-TR3 peptide (AID 748);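 also: fluorescence polarization from a fluorescein-labelled TR3 peptide binding purified Bcl-B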
T3 sequence (Q9HD36 whole entry): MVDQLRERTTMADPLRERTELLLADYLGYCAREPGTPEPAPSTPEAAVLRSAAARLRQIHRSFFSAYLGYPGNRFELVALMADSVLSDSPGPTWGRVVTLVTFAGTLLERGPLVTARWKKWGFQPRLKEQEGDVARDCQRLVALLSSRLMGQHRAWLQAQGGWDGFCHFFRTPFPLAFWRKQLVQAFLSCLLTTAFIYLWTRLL

Estrogen receptor beta = Estrogen receptor beta (Homo sapiens, UniProt Q92731); test: ERβ–SRC-3 coactivator interaction inhibitors, confirmation, orthogonal assay, biochemical, ELISA, streptavidin-HRP readout (AID 1060)
[16] = biological target: Intestinal-type alkaline phosphatase (Homo sapiens, UniProt P09923); test: Dose Response confirmation of uHTS hits from a small molecule inhibitors of human intestinal alkaline phosphatase via a luminescent assay. [Related pubchem assays (depositor defined):AID2544, AID2574]; type: functional
Estrogen receptor = biological target: T4, Estrogen receptor (Homo sapiens, UniProt P03372);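 also: potency for inhibiting coactivator peptide recruitment to the receptor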
T4 sequence (P03372 whole entry): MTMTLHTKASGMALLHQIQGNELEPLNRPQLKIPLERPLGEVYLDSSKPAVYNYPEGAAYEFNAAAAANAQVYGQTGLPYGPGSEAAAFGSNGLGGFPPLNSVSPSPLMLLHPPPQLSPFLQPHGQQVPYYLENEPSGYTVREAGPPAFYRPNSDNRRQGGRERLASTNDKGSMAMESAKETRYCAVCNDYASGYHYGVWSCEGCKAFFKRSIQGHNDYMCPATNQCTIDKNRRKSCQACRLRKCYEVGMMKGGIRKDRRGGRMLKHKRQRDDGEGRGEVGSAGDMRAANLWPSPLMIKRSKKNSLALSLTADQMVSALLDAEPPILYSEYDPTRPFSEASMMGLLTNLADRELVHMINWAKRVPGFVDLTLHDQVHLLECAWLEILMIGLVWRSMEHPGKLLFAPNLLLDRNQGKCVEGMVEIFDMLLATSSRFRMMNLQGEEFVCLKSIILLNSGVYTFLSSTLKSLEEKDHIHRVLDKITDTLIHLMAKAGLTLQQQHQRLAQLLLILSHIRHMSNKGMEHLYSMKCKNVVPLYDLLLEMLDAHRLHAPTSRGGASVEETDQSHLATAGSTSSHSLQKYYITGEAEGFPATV

NS3 = NS3 (Hepatitis C virus, UniProt A3EZJ3); test: PubChem AID 2173; set-up: species or system Hepacivirus hominis
Genome polyprotein = Genome polyprotein (dengue virus type 2, UniProt P29990); test: Dengue-2 NS5 methyltransferase inhibitors, primary screen, biochemical, confirmation dose response (AID 588689); type: functional
Large T antigen = Large T antigen (Simian virus 40, UniProt P03070); type: functional, Betapolyomavirus macacae;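 also: Confirmatory-stage PubChem screen for compounds that inhibit SV40 T antigen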
ORF 73 = biological target: T5, ORF 73 (Human herpesvirus 8, UniProt O40947); test: inhibitors of C-LANA binding to LBS DNA, dose response, biochemical, fluorescence polarization, cherry-picked samples (AID 504725); set-up: species or system Human gammaherpesvirus 8;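 also: fluorescence polarization of a labeled DNA duplex reporting LANA DNA binding; potency is for inhibitors that block LANA binding to the DNA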
T5 sequence (O40947 whole entry): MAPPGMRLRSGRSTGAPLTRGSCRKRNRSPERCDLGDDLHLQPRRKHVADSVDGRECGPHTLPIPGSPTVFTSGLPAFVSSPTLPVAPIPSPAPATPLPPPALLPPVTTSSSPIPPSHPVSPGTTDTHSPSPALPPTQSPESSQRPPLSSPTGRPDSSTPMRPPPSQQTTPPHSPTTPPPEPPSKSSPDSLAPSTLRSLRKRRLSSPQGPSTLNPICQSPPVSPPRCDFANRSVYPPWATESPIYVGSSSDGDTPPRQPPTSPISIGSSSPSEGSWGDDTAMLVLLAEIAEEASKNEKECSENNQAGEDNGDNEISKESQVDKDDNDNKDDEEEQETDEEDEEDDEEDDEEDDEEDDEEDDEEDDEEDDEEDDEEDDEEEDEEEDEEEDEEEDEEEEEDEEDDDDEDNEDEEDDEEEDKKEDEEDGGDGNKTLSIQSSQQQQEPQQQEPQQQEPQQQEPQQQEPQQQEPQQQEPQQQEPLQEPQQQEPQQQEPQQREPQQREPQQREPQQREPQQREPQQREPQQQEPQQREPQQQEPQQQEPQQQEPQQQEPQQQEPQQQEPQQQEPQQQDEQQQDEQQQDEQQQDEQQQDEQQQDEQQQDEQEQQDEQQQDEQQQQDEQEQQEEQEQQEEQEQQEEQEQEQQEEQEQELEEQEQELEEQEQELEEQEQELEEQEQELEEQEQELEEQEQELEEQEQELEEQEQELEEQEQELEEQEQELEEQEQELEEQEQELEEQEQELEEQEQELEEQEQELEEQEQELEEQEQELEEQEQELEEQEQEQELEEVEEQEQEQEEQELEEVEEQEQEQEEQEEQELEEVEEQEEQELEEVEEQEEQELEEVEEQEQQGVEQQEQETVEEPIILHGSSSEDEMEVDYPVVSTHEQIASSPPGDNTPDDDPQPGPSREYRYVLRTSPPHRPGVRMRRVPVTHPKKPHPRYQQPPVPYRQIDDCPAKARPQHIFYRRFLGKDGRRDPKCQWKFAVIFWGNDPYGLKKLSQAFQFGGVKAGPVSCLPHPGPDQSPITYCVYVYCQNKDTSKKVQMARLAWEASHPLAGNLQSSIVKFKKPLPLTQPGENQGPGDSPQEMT

Troponin, cardiac muscle = Troponin, cardiac muscle (Homo sapiens, UniProt P19429+P45379+P63316); test: inhibitors of cardiac thin filament calcium sensitivity, dose response, biochemical, fluorescence, cardiac regulated thin filaments, triplicate IC50 (AID 504742); type: protein-complex assay
[17] = biological target: 26S proteasome non-ATPase regulatory subunit 14 (Homo sapiens, UniProt O00487); test: inhibition of proteasome subunit RPN11 – biochemical, fluorescence polarization, uHTS hits, confirmation (AID 602368); type: functional
[18] = biological target: 72 kDa type IV collagenase (Homo sapiens, UniProt P08253); test: Dose Response validation of uHTS RPN11 inhibitor hits using a MMP-2 Fluorescence assay.; type: functional
Prothrombin = Prothrombin (Bos taurus, UniProt P00735); test: thrombin inhibition, dose response, biochemical, fluorescence polarization, uHTS hits (AID 602369); type: functional

Chain of Estrogen receptor beta (Q92731 whole entry): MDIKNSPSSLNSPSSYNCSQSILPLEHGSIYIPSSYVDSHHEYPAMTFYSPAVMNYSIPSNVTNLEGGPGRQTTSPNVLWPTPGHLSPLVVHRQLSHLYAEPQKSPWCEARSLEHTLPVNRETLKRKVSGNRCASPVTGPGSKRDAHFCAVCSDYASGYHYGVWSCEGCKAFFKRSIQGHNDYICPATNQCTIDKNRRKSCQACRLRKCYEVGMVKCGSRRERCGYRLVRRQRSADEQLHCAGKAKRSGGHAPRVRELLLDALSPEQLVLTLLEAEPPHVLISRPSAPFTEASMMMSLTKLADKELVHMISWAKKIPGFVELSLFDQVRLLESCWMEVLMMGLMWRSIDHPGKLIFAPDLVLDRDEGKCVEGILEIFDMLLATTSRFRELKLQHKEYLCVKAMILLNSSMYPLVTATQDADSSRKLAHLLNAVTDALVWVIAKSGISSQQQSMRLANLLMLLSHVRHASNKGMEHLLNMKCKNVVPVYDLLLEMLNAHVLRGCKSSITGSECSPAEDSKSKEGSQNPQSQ
Chain of Large T antigen (P03070 whole entry): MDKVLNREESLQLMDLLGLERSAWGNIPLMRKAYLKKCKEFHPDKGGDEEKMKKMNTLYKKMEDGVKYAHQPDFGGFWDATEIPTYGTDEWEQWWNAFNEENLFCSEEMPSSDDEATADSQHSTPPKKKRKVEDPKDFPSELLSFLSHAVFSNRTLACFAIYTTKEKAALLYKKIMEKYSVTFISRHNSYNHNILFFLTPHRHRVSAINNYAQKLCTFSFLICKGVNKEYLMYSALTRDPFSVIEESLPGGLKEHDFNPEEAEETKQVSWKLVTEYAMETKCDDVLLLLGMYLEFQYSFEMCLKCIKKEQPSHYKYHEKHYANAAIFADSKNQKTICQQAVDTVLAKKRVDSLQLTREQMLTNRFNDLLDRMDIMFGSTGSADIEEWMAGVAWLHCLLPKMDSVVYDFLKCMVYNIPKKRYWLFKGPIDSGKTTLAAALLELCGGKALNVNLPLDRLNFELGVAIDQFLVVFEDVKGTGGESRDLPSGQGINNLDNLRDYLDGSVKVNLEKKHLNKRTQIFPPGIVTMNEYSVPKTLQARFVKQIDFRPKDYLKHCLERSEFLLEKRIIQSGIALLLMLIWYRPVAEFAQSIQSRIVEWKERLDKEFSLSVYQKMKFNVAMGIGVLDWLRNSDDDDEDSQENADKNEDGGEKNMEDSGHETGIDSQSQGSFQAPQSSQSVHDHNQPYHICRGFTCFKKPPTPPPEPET
Chain of Voltage-gated N-type calcium channel alpha-1B subunit/Amyloid beta A4 precursor protein-binding family A member 1 (Q00975 whole entry): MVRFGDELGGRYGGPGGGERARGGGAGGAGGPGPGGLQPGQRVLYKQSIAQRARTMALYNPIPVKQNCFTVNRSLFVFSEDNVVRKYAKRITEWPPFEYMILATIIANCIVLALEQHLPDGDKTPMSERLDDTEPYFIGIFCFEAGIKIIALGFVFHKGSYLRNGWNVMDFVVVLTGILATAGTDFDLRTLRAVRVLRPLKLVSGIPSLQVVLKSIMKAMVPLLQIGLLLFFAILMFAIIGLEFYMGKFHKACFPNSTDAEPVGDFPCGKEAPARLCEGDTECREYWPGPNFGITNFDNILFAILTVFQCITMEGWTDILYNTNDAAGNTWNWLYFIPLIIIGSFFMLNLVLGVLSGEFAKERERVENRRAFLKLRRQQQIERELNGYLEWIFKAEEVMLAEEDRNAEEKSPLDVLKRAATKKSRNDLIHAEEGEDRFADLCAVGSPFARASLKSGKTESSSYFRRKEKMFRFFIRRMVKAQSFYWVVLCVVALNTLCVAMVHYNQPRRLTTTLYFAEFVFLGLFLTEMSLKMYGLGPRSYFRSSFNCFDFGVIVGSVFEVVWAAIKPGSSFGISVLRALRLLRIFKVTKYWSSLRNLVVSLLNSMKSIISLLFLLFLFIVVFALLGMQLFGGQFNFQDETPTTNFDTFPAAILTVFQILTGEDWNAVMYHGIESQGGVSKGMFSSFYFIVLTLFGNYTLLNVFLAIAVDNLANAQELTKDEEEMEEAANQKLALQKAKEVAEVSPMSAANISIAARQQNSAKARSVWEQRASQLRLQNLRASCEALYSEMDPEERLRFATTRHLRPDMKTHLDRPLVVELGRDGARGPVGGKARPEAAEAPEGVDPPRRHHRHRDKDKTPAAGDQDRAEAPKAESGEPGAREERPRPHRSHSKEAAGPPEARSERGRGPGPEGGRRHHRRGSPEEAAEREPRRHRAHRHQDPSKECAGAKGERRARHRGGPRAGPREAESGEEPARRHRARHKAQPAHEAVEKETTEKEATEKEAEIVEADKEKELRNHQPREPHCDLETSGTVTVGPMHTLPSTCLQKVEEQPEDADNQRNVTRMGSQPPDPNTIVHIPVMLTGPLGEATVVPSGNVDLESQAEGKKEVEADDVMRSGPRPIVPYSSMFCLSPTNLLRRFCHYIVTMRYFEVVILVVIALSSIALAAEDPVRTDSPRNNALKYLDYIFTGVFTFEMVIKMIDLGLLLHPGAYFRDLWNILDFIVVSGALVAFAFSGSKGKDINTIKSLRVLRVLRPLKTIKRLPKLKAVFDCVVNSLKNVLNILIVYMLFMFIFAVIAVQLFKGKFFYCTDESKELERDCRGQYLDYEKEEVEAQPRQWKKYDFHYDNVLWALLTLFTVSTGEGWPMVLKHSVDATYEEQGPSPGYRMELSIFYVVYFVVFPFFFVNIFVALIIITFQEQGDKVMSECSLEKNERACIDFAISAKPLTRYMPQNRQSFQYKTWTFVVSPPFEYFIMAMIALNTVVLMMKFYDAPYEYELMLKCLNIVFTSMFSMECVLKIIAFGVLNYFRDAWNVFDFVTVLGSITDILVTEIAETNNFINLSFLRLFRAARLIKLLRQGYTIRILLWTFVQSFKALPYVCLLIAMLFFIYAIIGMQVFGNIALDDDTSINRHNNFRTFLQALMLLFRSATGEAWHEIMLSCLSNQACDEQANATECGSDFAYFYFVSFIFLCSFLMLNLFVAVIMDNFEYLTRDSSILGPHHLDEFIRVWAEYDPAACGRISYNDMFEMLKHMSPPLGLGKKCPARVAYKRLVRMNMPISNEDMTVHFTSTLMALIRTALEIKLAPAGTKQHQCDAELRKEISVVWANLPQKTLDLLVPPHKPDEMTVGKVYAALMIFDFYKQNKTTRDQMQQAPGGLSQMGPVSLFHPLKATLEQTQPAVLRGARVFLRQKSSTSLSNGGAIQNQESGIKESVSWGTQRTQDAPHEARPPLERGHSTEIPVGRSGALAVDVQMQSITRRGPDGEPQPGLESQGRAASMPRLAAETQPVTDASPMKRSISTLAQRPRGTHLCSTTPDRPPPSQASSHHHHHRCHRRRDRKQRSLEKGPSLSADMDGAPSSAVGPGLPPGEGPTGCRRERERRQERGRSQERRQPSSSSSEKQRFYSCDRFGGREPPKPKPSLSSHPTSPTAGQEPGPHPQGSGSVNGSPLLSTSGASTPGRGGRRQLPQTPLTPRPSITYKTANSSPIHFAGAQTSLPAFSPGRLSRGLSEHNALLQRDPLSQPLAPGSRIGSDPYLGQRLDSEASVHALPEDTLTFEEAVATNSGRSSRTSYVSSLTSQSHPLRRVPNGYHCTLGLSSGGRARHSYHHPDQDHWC
Chain of Voltage-gated N-type calcium channel alpha-1B subunit/Amyloid beta A4 precursor protein-binding family A member 1 (Q02410 whole entry): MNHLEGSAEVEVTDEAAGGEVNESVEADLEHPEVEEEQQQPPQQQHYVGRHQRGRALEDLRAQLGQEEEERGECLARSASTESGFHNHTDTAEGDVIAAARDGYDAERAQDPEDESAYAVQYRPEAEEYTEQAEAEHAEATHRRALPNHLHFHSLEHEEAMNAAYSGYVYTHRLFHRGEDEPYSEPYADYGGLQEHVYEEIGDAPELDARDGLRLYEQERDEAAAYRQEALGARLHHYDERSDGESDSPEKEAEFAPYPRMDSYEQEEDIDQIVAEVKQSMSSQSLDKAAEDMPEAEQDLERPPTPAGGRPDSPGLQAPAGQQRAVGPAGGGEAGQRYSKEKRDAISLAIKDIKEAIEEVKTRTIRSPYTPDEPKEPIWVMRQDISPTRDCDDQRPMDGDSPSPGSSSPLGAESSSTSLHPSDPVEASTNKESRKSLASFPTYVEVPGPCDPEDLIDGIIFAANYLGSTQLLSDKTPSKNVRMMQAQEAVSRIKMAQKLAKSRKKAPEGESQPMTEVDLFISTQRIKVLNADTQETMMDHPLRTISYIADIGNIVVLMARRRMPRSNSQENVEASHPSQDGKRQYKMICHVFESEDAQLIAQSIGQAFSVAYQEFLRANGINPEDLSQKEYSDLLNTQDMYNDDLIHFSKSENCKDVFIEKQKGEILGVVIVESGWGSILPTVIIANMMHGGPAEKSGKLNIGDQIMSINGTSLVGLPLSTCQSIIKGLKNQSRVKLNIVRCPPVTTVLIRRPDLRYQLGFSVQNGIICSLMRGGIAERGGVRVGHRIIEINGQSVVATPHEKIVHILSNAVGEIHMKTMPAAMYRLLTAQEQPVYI
Chain of Paired box protein Pax-8 (Q06710 whole entry): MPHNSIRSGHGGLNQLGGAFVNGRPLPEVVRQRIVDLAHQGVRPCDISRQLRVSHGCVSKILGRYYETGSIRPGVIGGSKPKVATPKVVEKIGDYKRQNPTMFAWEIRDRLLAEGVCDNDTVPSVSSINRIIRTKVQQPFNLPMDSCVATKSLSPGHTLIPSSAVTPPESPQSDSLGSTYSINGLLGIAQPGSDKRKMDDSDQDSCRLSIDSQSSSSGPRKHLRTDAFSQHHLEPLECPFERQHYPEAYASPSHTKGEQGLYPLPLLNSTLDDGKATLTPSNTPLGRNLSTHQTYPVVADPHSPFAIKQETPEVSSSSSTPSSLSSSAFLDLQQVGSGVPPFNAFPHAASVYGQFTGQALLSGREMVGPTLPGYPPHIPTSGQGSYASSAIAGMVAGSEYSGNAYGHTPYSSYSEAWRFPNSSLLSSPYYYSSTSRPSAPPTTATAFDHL

Cc1cc(N2CCC(C)CC2)nc(NCc2ccccc2)n1
CC50 [1]: 13.4 µM (active) | CC50 [2]: > 20 µM (active) | CC50 [3]: > 20 µM (active) | IC50 (cells): 45.4 µM (active) | AC50 (INS1): 5.93 µM (active)

CCC(=O)N1CCc2cc(-c3csc(NC(=O)c4ccco4)n3)ccc21
AC50 [4]: 0.109 µM (active) | EC50 (Kallikrein-7): 10.5 µM (inactive)

O=C(Nc1cccc(Cl)c1)Nc1nnc(-c2ccncc2)s1
IC50 [5]: 3.12 µM (active) | CC50 [1]: 6.34 µM (active) | CC50 [2]: 9.96 µM (active) | CC50 [3]: > 20 µM (active) | IC50 (cells): > 50 µM (active) | AC50 (INS1): 4.54 µM (active) | AC50 (Paired box protein Pax-8): 2.97 µM (active) | AC50 [6]: 17.3 µM (active) | AC50 [7]: 8.34 µM (active) | AC50 [8]: 3.28 µM (active) | AC50 [9]: 6.08 µM (active) | AC50 [10]: 15.5 µM (active)

CCNC(=O)c1c(NC(=O)c2cc(-c3cc(C)ccc3O)[nH]n2)sc2c1CCCC2
EC50 [11]: 2.5 µM (active) | EC50 [12]: 11.3 µM (active) | EC50 [13]: 15 µM (active) | EC50 (Streptococcus): 7.09 µM (active) | AC50 [14]: 5.2 µM (active) | Absolute IC50 (XBP1) (X-box-binding protein 1): 10 µM

CC(/C=C/c1ccco1)=NNC(=O)c1cc(C)[nH]n1
IC50 [15]: > 56.8 µM (inactive)

O=C(Oc1ccc(O)cc1)C12CC3CC(CC(C3)C1)C2
Absolute IC50 (XBP1) (X-box-binding protein 1): 10 µM

CCN1CCN(c2ccc(NC(=O)c3cccc4ncccc34)cc2)CC1
IC50 (Bcl-2-like protein 10): 50.1 µM (inactive) | IC50 (Estrogen receptor beta): 0.121 µM (not active)

O=C(NC1CCCCCC1)c1ccc(-n2cnnc2)cc1
IC50 [16]: > 100 µM (inactive)

Cc1ccccc1NC(=O)CSc1nnc(-c2ccco2)c(-c2ccco2)n1
IC50 (Bcl-2-like protein 10): 27.3 µM (active) | IC50 (Estrogen receptor): 14.9 µM (active) | IC50 (NS3): 8.62 µM (active) | IC50 (Estrogen receptor beta): 1.98 µM (not active) | IC50 (Genome polyprotein): 64.7 µM (active)

O=C(O)C(Cc1ccccc1)N1C(=O)/C(=C/C=C/c2ccco2)SC1=S (configuration not stated)
IC50 (Large T antigen): 33.5 µM (active) | AC50 (ORF 73): 108 µM (active) | IC50 (Troponin, cardiac muscle): > 71.5 µM (inactive) | IC50 [17]: 7.33 µM (active) | IC50 [18]: 0.947 µM (active) | IC50 (Prothrombin): 75.3 µM (active)

C/C(N)=C(/C#N)C(=O)CSc1nc2ccccc2[nH]1
IC50 (Bcl-2-like protein 10): 22.3 µM (active)

C/C(=N\NC(=O)c1ccccc1OCc1ccc(F)cc1)c1ccccn1
CC50 [1]: 0.765 µM (active) | CC50 [2]: 3.6 µM (active) | CC50 [3]: 2.69 µM (active) | IC50 (cells): 3.02 µM (active) | AC50 (INS1): 1.83 µM (active)
